How the values were obtained:
[1] = test system: 3NP-lesioned C57BL/6 mice; test: 3-nitropropionic acid (3NP) model of Huntington's disease; assay type: in vivo; details: for COX-2 (2expΔΔct) / IL-6 (2expΔΔct) / TNF-α (2expΔΔct): striatum mRNA; for % GSH / % SOD activity / %Catalase activity: striatum
Experimental: Figure 7 VCE-003.2 is neuroprotective in 3NP-intoxicated mice. (a) Behavioural score was determined 12 hours after 3NP intoxication. Mice were treated with VCE-003.2 (20 mg/Kg) alone or combined with T0070907 (5 mg/kg) as indicated. Animals were also treated separately with either VCE-003.2 or T0070907 alone. Hind limb clasping, general locomotor activity, hind limb dystonia and kyphosis were rated from 0 to 2 based on severity (score 0 indicates normal function and 2 indicates the most severe affected function). Values are expressed as means ± SEM (n = 6). (b) Representative images of Nissl staining performed on coronal striatal brain sections from the same mice groups. Photomicrographs of NeuN (Bar size, 50 μm) Iba-1 and glial fibrillary acidic protein (GFAP) immunostained sections through the different group of mice are also shown. (c) Quantification of the different markers was performed with Image J software. Total average number of neurons (NeuN^+), microglia (Iba1^+) and astrocytes (GFAP^+) is shown. Values are expressed as means ± SEM (n = 6). *p < 0.05, **p < 0.01, ***p < 0.001 vs. Vehicle; ^#p < 0.05, ^##p < 0.01, ^###p < 0.001 vs. 3NP; †p < 0.05, ^††p < 0.01, ^†††p < 0.001 vs. the 3NP + VCE-003.2 group.
Mice were housed under standard conditions (12-h light/dark cycle) in groups with access to food and water ad libitum. All experiments were performed in accordance with European Union guideline and approved by the Animal Research Ethic Committee of Córdoba University (2014PI/017) (3NP model) and by the Animal Research Ethic Committee of Complutense University (CEA-UCM 73/2012) (QA model). Procedures were designed to minimize the number of animals used and their suffering. Excitotoxicity was induced by intrastriatal quinolinic acid (QA) administration (100 nmol in 1 μL PBS solution, unilaterally) as previously described[41] at the following coordinates: +0.6 posterior to bregma, +1.85 medio-lateral and -2.7 dorso-ventral to dura, in 12-week-old CD1 male mice (Harlan Ibérica, Barcelona, Spain). Pharmacological manipulation with VCE-003.2 (10 mg/kg body weight) was performed i.p. daily in 2% Tween 20 and 3% DMSO in saline buffer until sacrifice. Control animals received the corresponding vehicle injections. Motor function was assessed by RotaRod analysis conducted with acceleration from 4 to 40 rpm over a period of 570 s in an LE8200 device (Harvard Apparatus, Barcelona, Spain). […] 3NP-treated animals and their respective non-lesioned controls (injected with PBS) were used for pharmacological studies with VCE-003.2. Treatments consisted of 4 i.p. injections every 24 h with 20 mg/kg VCE-003.2 or vehicle (4% DMSO plus 6,2% Tween 20 in saline buffer), with the first and the last injections 30 min before the first and the last injections of 3NP, respectively. In some experiments, mice received a combination of VCE-003.2 and the PPARγ antagonist T0070907 (5 mg/kg) injected 15 minutes before VCE-003.2. In 3NP-lesioned mice, motor activity, hindlimb clasping, dystonia, and truncal dystonia were evaluated following previously described procedures. All behavioural tests were conducted prior to drug injections to avoid acute effects of the compounds under investigation and all animals were euthanized 12 h after the last injection of 3NP and their brains removed. The right hemispheres were used to dissect the striatum which was frozen in RNAlater (Sigma-Aldrich) and stored at −80 °C for biochemical analyses. The left hemispheres were fixed in fresh 4% paraformaldehyde (in 0.1 M PBS) for 48 h at 4 °C and embedded in paraffin wax for staining and immunohistochemical analysis. In all experiments, at least 6 animals were used per experimental group.
Free floating coronal brain slices ([…]) were processed as previously described. […]

Nrf2 pathway = test: Nrf2 transcriptional assay (NQO1-ARE-Luc) in N2a cells; assay type: cell-based; details: 6 hours
Experimental: Nrf2 transcriptional assay: To study Nrf2 transcriptional activity N2a cells were seeded (105/ml) in 24-well plates and transientl y transfected with the plasmid NQO1-ARE-Luc using Roti©-Fect following the manufacturer’s instructions (Carl Roth, Karlsruhe, German y). After 24 hours, cells were incubated wi th the compounds at the concentrations indicated during 6 hours and the luciferase activit y was determined using an Autolumat LB 953 (EG&G Berthold, Bad Wildbad, Germany). Protein content was determined b y the Bradford method to calculate R LU/Pg of protein and the results were expressed as a fold induction over untreated cells.
Supplementary Figure S1. Non-elect rophilic activity for VCE-003.2. (a) Reactive ox ygen species production.
In cu c yt e TM Liv e-Cell Im agin g S ystem. Results are ex pressed as m ean of t otal integrated intensity (ROS positive cells) ± S.D. (b) Effect on Nrf2 transcriptional activity. N2a cells were transientl y trans fected with the NQO1-ARE-Luc plasmid and incubated with the indicated compound concentrations for 6 hours prior to luciferase activit y determination.
Results are expressed as the fold induction ± S.D. relative to untreated control. All the results are representative of at least three independent experiments. Statistics: **p<0.01 VCE-003 treatment vers us Vehicle treated cells.

[2] = 3NP-lesioned mice, + T0070907 5 mg/kg
[3] = 3NP-treated mice, VCE-003.2 20 mg/kg
[4] = 3NP-treated mice, VCE-003.2 20 mg/kg + T0070907 5 mg/kg
[5] = substance alone, mean ± SEM n=6
[6] = 3NP-treated mice, VCE-003.2 20 mg/kg, % of vehicle control
[7] = substance alone, % of vehicle-treated control

Q: How did the “loss of Nissl and NeuN+ cells in striatum” value ([1]; 3NP-lesioned mice, 20 mg/kg) turn out when `CCCCCC1=C(NCC)C(=O)C(C/C=C(\C)CCC=C(C)C)=C(O)C1=O` [VCE-003.2] was run?
A: rescued the loss of Nissl and NeuN^+-cells

Q: And the “microgliosis and astrogliosis (Iba1, GFAP)” value ([1]; 3NP-lesioned mice, 20 mg/kg)?
A: reduced 3NP-induced microgliosis and astrogliosis

Q: What about the “motor deficits: hindlimb clasping, dystonia, kyphosis” value ([1]; 3NP-lesioned mice, 20 mg/kg i.p.) of the same compound?
A: improved the motor deficits of 3NP-lesioned mice by reducing hindlimb clasping, dystonia and kyphosis

Q: And the “effect on motor deficits with PPARγ antagonist co-administered” value [1, 2]?
A: abrogated

Q: And the “neuroprotective activity (Nissl, NeuN) with T0070907 co-administered” value [1, 2]?
A: prevented the activity of VCE-003.2

Q: What about the “behavioural score, substance alone” value ([1]; mice given the substance alone) of the same compound?
A: Neither VCE-003.2 nor T0070907 alone influenced the behavior of the animals

Q: What about the “COX-2 (2expΔΔct)” value [1, 3] of the same compound?
A: 2.7 ± 0.07^### 2expΔΔct

Q: And the “IL-6 (2expΔΔct)” value [1, 3]?
A: 1.79 ± 0.2^### 2expΔΔct

Q: And the “TNF-α (2expΔΔct)” value [1, 3]?
A: 1.56 ± 0.576^## 2expΔΔct

Q: What about the “COX-2 (2expΔΔct)” value [1, 4] of the same compound?
A: 8.91 ± 1^† 2expΔΔct

Q: What about the “IL-6 (2expΔΔct)” value [1, 4] of the same compound?
A: 8.18 ± 2.9 2expΔΔct

Q: What about the “TNF-α (2expΔΔct)” value [1, 4] of the same compound?
A: 3.83 ± 1.17 2expΔΔct

Q: What about the “COX-2 (2expΔΔct)” value [1, 5] of the same compound?
A: 1.31 ± 0.75 2expΔΔct

Q: What about the “IL-6 (2expΔΔct)” value [1, 5] of the same compound?
A: 1.14 ± 0.65 2expΔΔct

Q: And the “TNF-α (2expΔΔct)” value [1, 5]?
A: 1.15 ± 058 2expΔΔct

Q: What about the “% GSH” value [1, 4] of the same compound?
A: 121.48 ± 15.29%

Q: And the “% SOD activity” value [1, 4]?
A: 121.46 ± 37.04%

Q: And the “%Catalase activity” value [1, 4]?
A: 89.08 ± 5.7%

Q: What about the “% GSH” value [1, 6] of the same compound?
A: 111.7 ± 12.6%

Q: And the “% SOD activity” value [1, 6]?
A: 221.18 ± 26.91^# %

Q: What about the “%Catalase activity” value [1, 6] of the same compound?
A: 88.82 ± 6.75^# %

Q: And the “% GSH” value [1, 7]?
A: 101.81 ± 14.59%

Q: What about the “% SOD activity” value [1, 7] of the same compound?
A: 115.62 ± 27.34%

Q: What about the “%Catalase activity” value [1, 7] of the same compound?
A: 99.05 ± 6.1%

Q: What about the “activation of the Nrf2 pathway” value (Nrf2 pathway) of the same compound?
A: none of these bioactivities were induced

— article PMC4949444 (Scientific Reports, 2016)
